Tests used:
[1] = tested on: breast cancer cell with wild type Rb; assay: inhibition of breast cancer cells with wild type Rb; format: cell-based, human; conditions: FIG. 20
Experimental: (§1) The human cancer cell lines MCF7, BT474 and N417 were obtained from the American Type Culture Collection (Manassas, Va., USA) and maintained in a 1:1 mixture of DME:F12 supplemented with 2 mM glutamine, 50 U/mL penicillin, 50 U/mL streptomycin and 5% heat inactivated fetal bovie serum (Gemini Bioproducts) and incubated at 37° C. in 5% CO2.
(§2) Growth assays were performed by seeding 10000 cells (MCF7, BT474 or N417) per well in 6-well dishes and incubating for 24 h before drug treatment. Drugs or vehicle were administered as outlined for each experiment, and cells were incubated for the time periods depcited and then the number quantified by a Coulter counter.

HER2 = assay: reduction of HER2 in MCF7 and BT474 cells (protein assay, anti-Her2 blot); format: cell-based, human; conditions: 0.5 μM through 5 μM
Experimental: The human cancer cell lines MCF7, BT474 and […] were obtained from the American Type Culture Collection (Manassas, Va., USA) and maintained in a 1:1 mixture of DME:F12 supplemented with 2 mM glutamine, 50 U/mL penicillin, 50 […] and 5% heat inactivated fetal bovie serum (Gemini Bioproducts) and incubated at 37° C. in 5% CO2. Cells were grown to 60-70% confluence and exposed to drugs or DMSO vehicle for the indicated time periods. Lysates were prepared using 5 mM Tris pH 7.4, 2% SDS and 10% glycerol lysis buffer. Protein concentration was determined using the BCA kit (Pierce Chemical Co.) according to the manufacturer's instructions. Clarified protein lysates (20-50 μg) were electrophoretically resolved on denaturing SDS-PAGE, transferred to ntirocellulose and probed with the following primary antibodies: anti-Her2 (C-18).

[2] = tested on: small cell lung cancer cell line with defective Rb function; assay: inhibition of small cell lung cancer cells with defective Rb function; format: cell-based, human; conditions: for inhibition of small cell lung cancer cell line with defective Rb function / potency compared with 17-AGG in small cell lung cancer cell line with defective Rb function: FIG. 20
Experimental: as §1, §2

KB cells = conditions: against KB cells; Isaka et al. 2002; cited from earlier work
P. falciparum = conditions: against P. falciparum; Isaka et al. 2002; cited from earlier work
HSP90 = assay: binding of aigialomycin D to HSP90; conditions: compared with radicicol
[3] = tested on: MCF7 cells (HER2 overexpressed, Rb positive); assay: growth of MCF7 cells treated with radicicol and analogues; format: cell-based, human
Experimental: as §1, §2

[4] = tested on: Rb (retinoblastoma) positive cells; assay: cell cycle effect in Rb positive cells; format: cell-based
Experimental: (§3) Cell cycle distribution was assayed according to Nusse et al. with a Becton Dickinson fluorescence-activated cell sorter and analyzed by a Cell Cycle Multi-cycle system (Phoenix Flow System, San Diego, Calif., USA).

Rb negative cells = assay: cell cycle effect in Rb negative cells; format: cell-based
Experimental: as §3

## C[C@@H]1C[C@H]2C[C@@H]2/C=C\C=C\C(=O)Cc2c(Cl)c(O)cc(O)c2C(=O)O1 [cyclopropyl radicicol, Cycloproparadicicol]
[1]
  inhibition of breast cancer cell with wild type Rb: potent inhibitors
HER2
  effectiveness in reducing HER2 compared with radicicol: at least as effective, if not better than radicicol
[2]
  inhibition of small cell lung cancer cell line with defective Rb function: potent inhibitors
  potency compared with 17-AGG in small cell lung cancer cell line with defective Rb function: much more potent than 17-AGG

## C=CCNC1=C2C[C@@H](C)C[C@H](OC)[C@H](O)[C@@H](C)/C=C(\C)[C@H](OC(N)=O)[C@@H](OC)/C=C\C=C(/C)C(=O)NC(=CC1=O)C2=O [17-AGG, 17-allylaminogeldanamycin]
[2]; wild type Rb vs defective Rb
  potency in cells with wild type Rb versus cells with defective Rb function: much more potent against cells with wild type Rb than in cells with defective Rb function

## C[C@H]1C/C=C/[C@@H](O)[C@@H](O)CC/C=C/c2cc(O)cc(O)c2C(=O)O1 [Aigialomycin D]
KB cells
  antitumor activity IC50: 3.0 µg/mL
P. falciparum
  antimalarial activity IC50: 6.6 µg/mL
HSP90
  binding to HSP90: does bind to HSP90 (though significantly less so than radicicol (2))

## C[C@@H]1C[C@H]2O[C@@H]2/C=C\C=C\C(=O)Cc2c(Cl)c(O)cc(O)c2C(=O)O1 [Radicicol]
[3]
  efficacy in side by side experiment with radicicol (growth of MCF7 cells, FIG. 19): demonstrated efficacy
[4]
  cell cycle block in Rb positive cells: clear G1 (growth) phase block
[1]
  inhibition of breast cancer cell with wild type Rb: potent inhibitors
Rb negative cells
  cell cycle block in Rb negative cells: blocked in the M (mitosis) phase
[2]
  inhibition of small cell lung cancer cell line with defective Rb function: potent inhibitors
  potency compared with 17-AGG in small cell lung cancer cell line with defective Rb function: much more potent than 17-AGG

## radicicol oxime [VII]
[3]
  efficacy in side by side experiment with radicicol (growth of MCF7 cells, FIG. 19): demonstrated efficacy
